From ChEMBL document CHEMBL4351033, “Heterocyclic β-keto sulfide derivatives of carvacrol: Synthesis and copper (II) ion reducing capacity” (Bioorg Med Chem Lett, 2019)
Activity calls are given as the source filed them. No cut-off for these calls is given here.

Assays:
[1] = Antioxidant activity assessed as reduction of Cu2+ in bis-neocuproine-Cu2+ complex to bis-neocuproine-Cu+ complex measured as trolox equivalent antioxidant capacity incubated for 30 mins by CUPRAC assay; type: functional
[2] = Metal coordinating activity assessed as compound-copper coordination at 12.5 to 37.5 uM incubated for 0.5 to 1 hr in presence of 2.5 mM CuCl2 by UV-Visible spectrophotometric analysis; type: functional

Row | SMILES | Ratio [1] | Activity [2] | Activity [1]
1 | COc1cc(C(C)C)c(C(=O)CSc2nc3ccccc3[nH]2)cc1C | 1.21 |  | 
2 | COc1cc(C(C)C)c(C(=O)CSc2ncccn2)cc1C | 0.39 |  | 
3 | COc1cc(C(C)C)c(C(=O)CSc2nc3ccccc3o2)cc1C | 1.47 |  | 
4 | COc1cc(C(C)C)c(C(=O)CSc2nnc(N)[nH]2)cc1C | 1.62 |  | 
5 | O=C1O[C@H]([C@@H](O)CO)C(O)=C1O | 0.85 |  | 
6 | Cc1ccc(C(C)C)cc1O | 0.87 |  | 
7 | COc1cc(C(C)C)c(C(=O)CSc2nnc(-c3ccccn3)o2)cc1C | 1.59 | inactive | 
8 | COc1cc(C(C)C)c(C(=O)CSc2ccccn2)cc1C | 0.59 |  | 
9 | COc1cc(C(C)C)c(C(=O)CSc2ccccc2)cc1C | 0.8 |  | 
10 | COc1cc(C(C)C)c(C(=O)CSc2nc3ccccc3s2)cc1C | 1.26 |  | 
11 | COc1cc(C(C)C)c(C(=O)CSc2nnc(N)s2)cc1C | 1.4 |  | 
12 | COc1cc(C(C)C)c(C(=O)CSc2nnc(C)s2)cc1C | 1.73 |  | 
13 | COc1cc(C(C)C)c(C(=O)CSc2ncnc3[nH]cnc23)cc1C | 1.32 |  | 
14 | COc1cc(C(C)C)c(C(=O)CSc2nnc(-c3ccccc3)[nH]2)cc1C | 1.02 |  | 
15 | COc1cc(C(C)C)c(C(=O)CSc2nnc(-c3ccccc3)o2)cc1C | 1.34 |  | 
16 | COc1cc(C(C)C)c(C(=O)CS(=O)(=O)c2ccccc2)cc1C |  |  | inactive
17 | COc1cc(C(C)C)c(C(=O)CSc2ccncc2)cc1C | 0.47 |  | 
18 | COc1cc(C(C)C)c(C(=O)CSc2nnc(-c3ccncc3)o2)cc1C | 0.95 |  | 
19 | COc1cc(C(C)C)c(C(=O)CSc2nnc(-c3cccnc3)o2)cc1C | 0.68 |  | 
